From ChEMBL document CHEMBL1201862, “PubChem BioAssay data set” (2004)
The source made the active and inactive calls.

Columns and labels:
[1] = molecular target: T1, Polyadenylate-binding protein 1 (Homo sapiens, UniProt P11940); experiment: MLLE binding blockers, Cy5 peptide tracer – biochemical, fluorescence polarization, Cy5-PAM2 peptide, secondary, miRNA deadenylation inhibitor project, dose response (AID 602260); assay type: functional; settings: read-out: IC50_Mean
[2] = molecular target: T1, Polyadenylate-binding protein 1; experiment: MLLE domain peptide-binding blockers, IC50 – biochemical, fluorescence polarization, FITC-PAM2 peptide, dose response (AID 602259); assay type: functional; settings: read-out: IC50_Mean
[3] = molecular target: T2, Rac GTPase-activating protein 1 (Homo sapiens, UniProt Q9H0H5); experiment: blockers of MgcRacGAP-driven Rac1 GTP hydrolysis – biochemical, ADP Hunter fluorescence, primary and confirmatory, confirmation (AID 624330); assay type: functional
T2 sequence (Q9H0H5 whole entry): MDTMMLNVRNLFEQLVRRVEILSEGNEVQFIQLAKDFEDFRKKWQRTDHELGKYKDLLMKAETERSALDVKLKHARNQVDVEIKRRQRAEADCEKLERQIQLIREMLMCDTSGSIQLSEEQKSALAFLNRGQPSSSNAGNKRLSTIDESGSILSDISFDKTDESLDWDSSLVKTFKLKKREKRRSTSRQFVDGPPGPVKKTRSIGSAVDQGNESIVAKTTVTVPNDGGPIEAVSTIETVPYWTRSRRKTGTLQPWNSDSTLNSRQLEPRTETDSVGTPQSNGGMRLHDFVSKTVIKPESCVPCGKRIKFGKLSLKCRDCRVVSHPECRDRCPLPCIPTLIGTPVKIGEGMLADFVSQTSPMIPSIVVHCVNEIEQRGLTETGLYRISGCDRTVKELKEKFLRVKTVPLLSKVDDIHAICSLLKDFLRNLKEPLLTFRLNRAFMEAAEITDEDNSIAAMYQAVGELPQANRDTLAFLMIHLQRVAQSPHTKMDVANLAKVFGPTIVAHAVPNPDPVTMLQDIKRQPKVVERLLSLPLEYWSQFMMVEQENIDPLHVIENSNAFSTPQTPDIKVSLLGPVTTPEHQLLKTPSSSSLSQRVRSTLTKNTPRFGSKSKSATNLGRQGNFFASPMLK

[4] = molecular target: FAD-linked sulfhydryl oxidase ALR (Homo sapiens, UniProt P55789); experiment: ALR-catalysed DTT oxidation blockers – biochemical, H2O2 detection, luminescence, cherry-pick, dose response (AID 493248)
Chain of FAD-linked sulfhydryl oxidase ALR (P55789 whole entry): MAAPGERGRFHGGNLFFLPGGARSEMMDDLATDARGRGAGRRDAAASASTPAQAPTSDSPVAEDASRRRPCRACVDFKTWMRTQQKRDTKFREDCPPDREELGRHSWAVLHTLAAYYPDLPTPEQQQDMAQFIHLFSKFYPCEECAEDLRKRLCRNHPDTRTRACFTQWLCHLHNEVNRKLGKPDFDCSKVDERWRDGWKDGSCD

Nonstructural protein 1 = Nonstructural protein 1 (Influenza A virus, UniProt Q194T2); assay type: functional, Influenza A virus (A/California/07/2009(H1N1))
Chain of Nonstructural protein 1 (Q194T2 whole entry): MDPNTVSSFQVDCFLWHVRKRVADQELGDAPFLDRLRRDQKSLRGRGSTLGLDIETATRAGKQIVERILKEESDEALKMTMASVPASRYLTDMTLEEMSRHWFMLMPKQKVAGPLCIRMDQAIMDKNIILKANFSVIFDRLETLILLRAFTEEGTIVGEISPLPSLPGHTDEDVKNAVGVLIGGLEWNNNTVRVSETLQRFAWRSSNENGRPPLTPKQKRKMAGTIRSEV

[5] = molecular target: T3, Zinc finger protein mex-5 (Caenorhabditis elegans, UniProt Q9XUB2); experiment: potency of MEX-5 RNA-binding blockers – biochemical, C. elegans, fluorescence polarization, dose response (AID 1960)
T3 sequence (Q9XUB2 whole entry): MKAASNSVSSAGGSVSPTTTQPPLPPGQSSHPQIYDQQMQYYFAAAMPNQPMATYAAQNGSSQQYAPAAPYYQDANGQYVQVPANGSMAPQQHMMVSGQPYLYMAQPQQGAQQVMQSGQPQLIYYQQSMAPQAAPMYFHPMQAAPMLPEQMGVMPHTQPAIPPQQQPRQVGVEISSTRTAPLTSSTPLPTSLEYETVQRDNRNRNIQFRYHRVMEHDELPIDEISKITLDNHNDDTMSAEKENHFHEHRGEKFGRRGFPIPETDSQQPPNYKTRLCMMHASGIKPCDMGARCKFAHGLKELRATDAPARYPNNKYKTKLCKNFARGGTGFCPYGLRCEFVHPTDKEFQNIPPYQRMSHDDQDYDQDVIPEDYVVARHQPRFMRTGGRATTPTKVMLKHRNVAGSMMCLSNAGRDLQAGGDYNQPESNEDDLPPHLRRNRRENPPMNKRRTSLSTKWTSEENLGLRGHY

[6] = molecular target: T4, RNA-binding protein pos-1 (Caenorhabditis elegans, UniProt G5EF15); experiment: disruptors of C. elegans POS-1 RNA interaction – biochemical, fluorescence polarization, dose response (AID 1964);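 note: purified POS-1 fused to maltose binding protein made in E. coli; potency of compounds blocking POS-1 binding to fluorescent RNA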
T4 sequence (G5EF15 whole entry): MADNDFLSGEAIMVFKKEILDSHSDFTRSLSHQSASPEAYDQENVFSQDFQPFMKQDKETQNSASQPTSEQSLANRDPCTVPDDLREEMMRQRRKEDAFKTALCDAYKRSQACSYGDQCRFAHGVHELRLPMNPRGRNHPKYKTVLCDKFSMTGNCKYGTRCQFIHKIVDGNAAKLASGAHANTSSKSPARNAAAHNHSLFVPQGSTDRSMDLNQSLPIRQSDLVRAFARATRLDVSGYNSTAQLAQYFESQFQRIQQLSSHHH

[7] = Luminescence Cell-Based Dose Response HTS to Identify Activators of Luciferase Translation or Activity in H4 […] Cells. [Related pubchem assays: 1829 (Project Summary), 1814 (Primary HTS)]; assay type: functional
H4 = experiment: Luminescence Cell-Based Dose Response HTS to Identify Activators of 5'UTR Stem-Loop Driven Prion Protein mRNA Translation in H4 Neuroglioblastoma Cells. [Related pubchem assays: 1829 (Project Summary), 1814 (Primary HTS)]; assay type: functional; settings: Homo sapiens
[8] = luciferase reporter signal suppression in cells – H4 neuroglioma cells, luminescence, dose response (AID 1990); assay type: functional, cell-based
[9] = Luminescence Cell-Based Dose Response HTS to Identify Inhibitors of 5'UTR Stem-Loop Driven Prion Protein mRNA Translation in H4 Neuroglioblastoma Cells. [Related pubchem assays: 1827 (Project Summary), 1813 (Primary HTS)]; assay type: functional
[10] = alpha-synuclein stem-loop luciferase translation blockers – H4 neuroglioma cells, luminescence, confirmation (AID 1988); assay type: functional, cell-based
[11] = molecular target: T5, Heat shock factor protein 1 (Mus musculus, UniProt P38532); experiment: enhancement of HSF1-driven luciferase signal – cell-based, NIH3T3, luminescence, dose retest, confirmation (AID 435004); assay type: functional;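 note: stress induced by proteasome inhibitor MG132 added 30 min after compound; luciferase reporter driven by HSF1 response element in NIH3T3 cells; actives raise luminescence as potentiators of the MG132 stress response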
T5 sequence (P38532 whole entry): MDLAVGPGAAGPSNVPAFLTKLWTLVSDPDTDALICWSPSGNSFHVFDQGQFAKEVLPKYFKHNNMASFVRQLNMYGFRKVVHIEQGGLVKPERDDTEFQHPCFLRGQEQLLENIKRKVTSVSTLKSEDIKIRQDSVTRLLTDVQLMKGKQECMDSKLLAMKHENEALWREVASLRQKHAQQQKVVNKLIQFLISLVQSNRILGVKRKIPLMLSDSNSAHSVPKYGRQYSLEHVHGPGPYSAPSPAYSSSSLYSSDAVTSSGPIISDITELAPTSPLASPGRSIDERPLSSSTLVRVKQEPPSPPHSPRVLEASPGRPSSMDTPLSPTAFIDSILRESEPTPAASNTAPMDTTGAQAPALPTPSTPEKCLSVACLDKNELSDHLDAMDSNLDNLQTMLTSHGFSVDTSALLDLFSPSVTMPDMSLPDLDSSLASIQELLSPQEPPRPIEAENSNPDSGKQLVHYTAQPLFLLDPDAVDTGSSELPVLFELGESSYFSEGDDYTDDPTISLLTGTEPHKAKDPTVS

[12] = Luminescence Cell-Based Dose Retest to Confirm Inhibitors of Cancer Stem Cells. [Related pubchem assays (depositor defined):AID2717, AID2721]; assay type: functional; settings: Homo sapiens

T1 sequence (P11940 whole entry, the tested form may be a part): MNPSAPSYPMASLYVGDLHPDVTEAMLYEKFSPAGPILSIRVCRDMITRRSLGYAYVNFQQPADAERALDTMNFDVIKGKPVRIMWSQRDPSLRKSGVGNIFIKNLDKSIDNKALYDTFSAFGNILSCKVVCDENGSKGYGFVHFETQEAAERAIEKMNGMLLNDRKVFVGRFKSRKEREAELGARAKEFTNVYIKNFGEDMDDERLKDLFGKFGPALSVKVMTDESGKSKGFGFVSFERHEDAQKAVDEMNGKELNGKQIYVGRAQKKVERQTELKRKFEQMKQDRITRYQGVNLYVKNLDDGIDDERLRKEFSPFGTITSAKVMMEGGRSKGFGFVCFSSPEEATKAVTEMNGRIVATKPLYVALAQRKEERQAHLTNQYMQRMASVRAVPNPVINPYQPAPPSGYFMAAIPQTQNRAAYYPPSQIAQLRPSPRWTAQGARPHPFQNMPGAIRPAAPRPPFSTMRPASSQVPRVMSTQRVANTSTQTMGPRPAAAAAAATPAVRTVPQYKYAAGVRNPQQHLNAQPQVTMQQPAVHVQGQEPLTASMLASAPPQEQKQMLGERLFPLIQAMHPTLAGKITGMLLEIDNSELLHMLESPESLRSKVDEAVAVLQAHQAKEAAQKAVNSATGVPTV

## Cc1c(C(=O)NCc2ccc3c(c2)cc(C)n3C)cccc1[N+](=O)[O-]
[1]
  IC50: > 66 µM (inactive)
[2]
  IC50: > 66 µM (inactive)

## c1ccc(CN2CCN(Cc3ccc4ccccc4c3)CC2)cc1
[3]
  IC50: 123 µM (active)

## CCOc1cc(/C=N/n2c(C)nnc2C)ccc1O
[3]
  IC50: 103 µM (active)

## COc1cc(/C=N/NC(=O)c2cc3ccccc3[nH]2)ccc1O
[3]
  IC50: 17.8 µM (active)
[4]
  AC50: 0.393 µM (active)

## O=C(NCC1CCCO1)C(=O)N/N=C/c1cc(Cl)ccc1O (centres undefined)
Nonstructural protein 1
  IC50: 7.81 µM (active)

## CCOC(=O)c1c(N/C=C2/C(=O)NC(=O)N(c3cccc(C)c3)C2=O)sc2c1CCCC2
[5]
  EC50: > 300 µM (not active)
[6]
  EC50: > 300 µM (not active)

## CCN(CC)S(=O)(=O)c1cccc(-c2nnc(S)n2/N=C/c2ccc(OC(F)F)cc2)c1
[3]
  IC50: 147 µM (active)

## CCCNc1cc(S)nc(N)n1
[1]
  IC50: > 66 µM (inactive)
[2]
  IC50: > 66 µM (inactive)

## COc1cccc(-c2nc(CSCC(=O)NCC3CCCO3)c(C)o2)c1 (centres undefined)
[1]
  IC50: > 66 µM (inactive)
[2]
  IC50: > 66 µM (inactive)

## CN(C)c1ccc(NC(=O)c2ccc3nsnc3c2)cc1
[3]
  IC50: 65.4 µM (active)

## O=C(CCSc1ccc(Cl)cc1)N1CCCCCC1
[7]
  EC50: > 120 µM (not active)
H4
  EC50: 21.6 µM (active)

## CC1CCN(c2ccccc2NC(=S)NC(=O)C(C)(C)C)CC1
[1]
  IC50: > 66 µM (inactive)
[8]
  EC50: 16 µM (active)
[9]
  EC50: > 120 µM (not active)
[2]
  IC50: > 66 µM (inactive)
[10]
  EC50: > 120 µM (not active)

## Cc1ccc(/C=N/NC(=O)c2cccc(S(=O)(=O)Nc3ccccc3Cl)c2)o1
[11]
  EC50: > 260 µM (inactive)

## COc1ccc(C)cc1-n1c(=O)c2ccccc2c2ccccc2c1=O
[11]
  EC50: 11.7 µM (active)

## CCOC(=O)/C(C#N)=C/c1cn(CCC(=O)O)nc1-c1ccc(Cl)cc1
[11]
  EC50: > 260 µM (inactive)

## Cc1cccc(-n2c(N)cc(=O)nc2SCC(=O)Nc2cc(C)on2)c1
[1]
  IC50: > 66 µM (inactive)
[2]
  IC50: > 66 µM (inactive)

## CC(C)C(=O)OCC(=O)Nc1ccc(N=Nc2ccccc2)cc1
Nonstructural protein 1
  IC50: > 100 µM (active)

## CCc1cc(/C(Cc2csc(C)n2)=N/O)c(O)cc1O
[3]
  IC50: 28.3 µM (active)

## O=C(NN1C(=O)c2ccccc2NC1c1ccccn1)c1ccc(Br)cc1 (centres undefined)
[5]
  EC50: 15.5 µM (active)
[6]
  EC50: 64.9 µM (active)

## NC(=S)N=Nc1c(O)[nH]c2c(Cl)cc(Cl)cc12
[1]
  IC50: > 66 µM (inactive)
[2]
  IC50: > 66 µM (inactive)

## NC(S)=NN=C1c2cc(S(=O)(=O)N3CCOCC3)ccc2-c2ccc(S(=O)(=O)N3CCOCC3)cc21
[1]
  IC50: > 66 µM (inactive)
[2]
  IC50: > 66 µM (inactive)

## CCOC(=O)c1cnc2nc(C)ccc2c1O
[5]
  EC50: 11.8 µM (active)
[6]
  EC50: 13.7 µM (inconclusive)

## O=C(COC(=O)C1CCCCC1)Nc1ccc(N2CCCCC2)cc1
Nonstructural protein 1
  IC50: 34.6 µM (active)

## c1ccc(-c2ccccc2OCCOCCN2CCOCC2)cc1
[3]
  IC50: 58.9 µM (active)

## Cc1cc([N+](=O)[O-])nn1CC(=O)N/N=C/c1ccc(O)cc1O
[12]
  AC50: 12.1 µM (active)
Nonstructural protein 1
  IC50: 14.2 µM (active)

## N#Cc1c(-c2ccc(Cl)cc2)c2c([nH]c1=O)-c1ccccc1OC2
[5]
  EC50: 53 µM (active)
[6]
  EC50: > 300 µM (not active)

## CN(C)C=O.Oc1cccc2c(NC(S)=Nc3ccc(OC(F)F)cc3)cccc12
[7]
  EC50: 12.8 µM (active)
[3]
  IC50: 116 µM (active)
H4
  EC50: > 120 µM (not active)

## O=C(c1ccccc1)c1ccc(C(=O)N2CCN(c3ccc(O)cc3)CC2)cc1
[3]
  IC50: 34 µM (active)

## COc1ccc(/C=C(\NC(=O)c2ccccc2)C(=O)N/N=C/c2sccc2C)cc1
[11]
  EC50: > 260 µM (inactive)

## Cc1cccn2c(=O)c3cc(C(=O)N(C)C)n(C)c3nc12
[1]
  IC50: > 66 µM (inactive)
[2]
  IC50: 39.3 µM (inactive)

## N=C1/C(=C\c2ccc(SCc3ccccc3)o2)C(=O)N=C2SC(CC(=O)N3CCOCC3)=NN12
[5]
  EC50: 33.3 µM (active)
[6]
  EC50: 63.4 µM (active)

## Cn1cc(/C=C2/SC(=O)N(c3ccccc3)C2=O)c2ccccc21
[7]
  EC50: 50.8 µM (active)
H4
  EC50: 94.6 µM (active)
